Measured values taken from ChEMBL document CHEMBL5032522, “N-2-(phenylamino) benzamide derivatives as novel anti-glioblastoma agents: Synthesis and biological evaluation” (Eur J Med Chem, 2021).
The source made the active and inactive calls. No cut-off for these calls is given here.

Key:
U-87 MG [1] = experiment: Inhibition of cell invasion in human U-87 MG cells incubated for 24 hrs by crystal violet staining based light microscopic analysis; format: functional; conditions: U-87MG ATCC
[2] = target: T1, Prostaglandin G/H synthase 2 (Rattus norvegicus) (UniProt P35355); experiment: In vivo inhibition of COX2 in ip dosed orthotopic Sprague-Dawley rat model inoculated with C6 cells assessed as reduction in PGE2 production by ELISA; format: functional, organism-based
T1 sequence (whole entry): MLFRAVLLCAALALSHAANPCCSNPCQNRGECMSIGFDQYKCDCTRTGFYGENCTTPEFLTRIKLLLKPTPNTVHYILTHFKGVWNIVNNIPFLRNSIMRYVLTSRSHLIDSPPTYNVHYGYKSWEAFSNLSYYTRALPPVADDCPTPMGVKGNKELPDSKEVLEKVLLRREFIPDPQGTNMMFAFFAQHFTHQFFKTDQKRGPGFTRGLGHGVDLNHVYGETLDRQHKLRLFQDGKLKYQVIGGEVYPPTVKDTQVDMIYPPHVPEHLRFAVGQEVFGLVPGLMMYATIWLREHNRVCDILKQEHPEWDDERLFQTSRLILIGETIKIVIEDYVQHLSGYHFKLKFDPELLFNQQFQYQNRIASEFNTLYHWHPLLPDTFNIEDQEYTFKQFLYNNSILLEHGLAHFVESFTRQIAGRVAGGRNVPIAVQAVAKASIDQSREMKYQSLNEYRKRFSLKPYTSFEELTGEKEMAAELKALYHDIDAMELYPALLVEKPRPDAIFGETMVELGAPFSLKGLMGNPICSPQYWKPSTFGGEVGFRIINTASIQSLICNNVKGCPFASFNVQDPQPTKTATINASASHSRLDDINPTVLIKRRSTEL

C6 = experiment: Antiproliferative activity against rat C6 cells assessed as inhibition of cell growth measured after 72 hrs by CCK-8 assay; format: functional, cell-based; conditions: C6, 72 h
U-251 [3] = experiment: Induction of morphological changes in human U-251 cells assessed as membrane blebbing at 3.3 uM incubated for 72 hrs by Giemsa staining based light microscopic method; format: functional, cell-based
U-251 [4] = experiment: Antiproliferative activity against human U-251 cells assessed as inhibition of cell growth measured after 72 hrs by CCK-8 assay; format: functional, cell-based; conditions: U-251, 72 h
U-87 MG [5] = experiment: Antitumor activity against human U-87 MG cells xenografted in BALB/c nude mouse assessed as reduction in Ki67 expression in tumor at 20 mg/kg, ip bid measured every 3 days for 25 days by immunohistochemical analysis; format: functional, organism-based; conditions: U-87MG ATCC, time 25.0 day
U-87 MG [6] = experiment: Antitumor activity against human U-87 MG cells xenografted in BALB/c nude mouse assessed as reduction in tumor weight at 20 mg/kg, ip bid measured every 3 days for 25 days; format: functional, organism-based; conditions: U-87MG ATCC, time 25.0 day
[7] = Toxicity in BALB/c mouse xenografted with human U-87 MG cells assessed as reduction in body weight at 20 mg/kg, ip bid measured after 25 days; format: organism-based; conditions: in vivo, 600 h, time 25 day
[8] = Acute toxicity in Kunming mouse assessed as death at 300 mg/kg, ip administered as single dose observed every day for 14 days; format: organism-based; conditions: in vivo, 336 h, time 14 day
U-87 MG [9] = experiment: Antitumor activity against human U-87 MG cells xenografted in BALB/c nude mouse assessed as tumor growth inhibition at 20 mg/kg, ip bid measured every 3 days for 25 days relative to control; format: functional, U-87MG ATCC; conditions: 600 h, time 25 day, read-out: TGI
Rattus norvegicus [10] = species on record: Rattus norvegicus; experiment: Downregulation of MMP-9 protein expression in Sprague-Dawley rat orthotopic model inoculated with C6 cells by Western blot analysis; format: functional
Rattus norvegicus [11] = species on record: Rattus norvegicus; experiment: Upregulation of E-cadherin protein expression in Sprague-Dawley rat orthotopic model inoculated with C6 cells by Western blot analysis; format: functional
Rattus norvegicus [12] = experiment: In vivo inhibition of STAT3 activation in ip dosed orthotopic Sprague-Dawley rat model inoculated with C6 cells assessed as decrease in p-STAT3 in tumor tissue by Western blot analysis; format: functional, organism-based

SMILES | inhibition (U-87 MG [1]) | inhibition [2] | IC50 (C6) [µM] | Activity (U-251 [3]) | IC50 (U-251 [4]) [µM] | Activity (U-87 MG [5]) | Activity (U-87 MG [6]) | Activity [7] | Activity [8] | inhibition in vivo at 20 mg/kg (U-87 MG [9]) [%] | Activity (Rattus norvegicus [10]) | Activity (Rattus norvegicus [11]) | inhibition (Rattus norvegicus [12])
Cc1c(Cl)cccc1Nc1ccccc1C(=O)Nc1ccc2c(c1)OCO2 | Dose-Dependent Effect | Active | 16.9 | Active | 9.91 |  |  |  |  |  |  |  | 
COc1ccc(NC(=O)c2ccccc2Nc2cccc(Cl)c2C)cc1 | Dose-Dependent Effect | Active | 10.1 | Active | 5.36 | Active | Active | Non-Toxic | Non-Toxic | 69.4 | Active | Active | Active
